Data published in ChEMBL document CHEMBL1201862, “PubChem BioAssay data set” (2004).
Calls of active or inactive are those of the source.

Tests used:
[1] = AlphaScreen signal interference compounds, dose response, artefact control for ARNT-TACC3 interaction inhibitor project, biochemical, luminescence, cherry-pick (AID 651705); assay type: functional;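 also: AlphaScreen bead proximity signal that flags compounds interfering with the detection technology; potency reflects signal decrease which marks the compound as an assay artifact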
[2] = molecular target: T1, Replicative DNA helicase DnaB (Mycobacterium tuberculosis, UniProt P9WMR3); assay: DnaB intein splicing inhibitors, dose response, biochemical, cell-free fluorescence (AID 449749); assay type: functional
T1 sequence (P9WMR3 whole entry): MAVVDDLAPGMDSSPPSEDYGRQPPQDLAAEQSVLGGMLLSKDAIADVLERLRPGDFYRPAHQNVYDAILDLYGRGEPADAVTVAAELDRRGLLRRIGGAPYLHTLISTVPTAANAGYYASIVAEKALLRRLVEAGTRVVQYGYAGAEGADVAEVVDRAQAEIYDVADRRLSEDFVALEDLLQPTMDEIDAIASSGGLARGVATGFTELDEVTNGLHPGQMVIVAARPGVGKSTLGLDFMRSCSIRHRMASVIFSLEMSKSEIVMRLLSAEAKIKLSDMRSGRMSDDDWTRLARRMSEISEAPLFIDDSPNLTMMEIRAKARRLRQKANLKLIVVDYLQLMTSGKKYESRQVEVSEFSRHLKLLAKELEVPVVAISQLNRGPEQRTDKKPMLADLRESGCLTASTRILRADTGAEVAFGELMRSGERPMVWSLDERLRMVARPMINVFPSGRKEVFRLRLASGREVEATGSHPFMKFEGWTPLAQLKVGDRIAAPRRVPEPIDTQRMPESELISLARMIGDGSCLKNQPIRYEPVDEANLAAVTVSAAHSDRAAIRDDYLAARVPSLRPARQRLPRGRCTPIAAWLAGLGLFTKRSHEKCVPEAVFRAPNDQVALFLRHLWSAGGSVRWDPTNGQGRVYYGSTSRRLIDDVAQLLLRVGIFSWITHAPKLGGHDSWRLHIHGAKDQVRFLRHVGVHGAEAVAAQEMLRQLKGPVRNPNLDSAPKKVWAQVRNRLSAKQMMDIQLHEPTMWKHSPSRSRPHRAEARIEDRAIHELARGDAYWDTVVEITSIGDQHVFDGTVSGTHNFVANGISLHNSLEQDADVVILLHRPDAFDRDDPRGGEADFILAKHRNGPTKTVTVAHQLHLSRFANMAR

Protein RecA = molecular target: T2, Protein RecA (Mycobacterium tuberculosis, UniProt P9WHJ3); assay: Fluorescence Cell-Free Homogeneous Dose Retest to Identify Inhibitors of RecA-Intein Splicing Activity. [Related pubchem assays (depositor defined):AID2097, AID2223, AID489010, AID492950]; assay type: functional
T2 sequence (P9WHJ3 whole entry): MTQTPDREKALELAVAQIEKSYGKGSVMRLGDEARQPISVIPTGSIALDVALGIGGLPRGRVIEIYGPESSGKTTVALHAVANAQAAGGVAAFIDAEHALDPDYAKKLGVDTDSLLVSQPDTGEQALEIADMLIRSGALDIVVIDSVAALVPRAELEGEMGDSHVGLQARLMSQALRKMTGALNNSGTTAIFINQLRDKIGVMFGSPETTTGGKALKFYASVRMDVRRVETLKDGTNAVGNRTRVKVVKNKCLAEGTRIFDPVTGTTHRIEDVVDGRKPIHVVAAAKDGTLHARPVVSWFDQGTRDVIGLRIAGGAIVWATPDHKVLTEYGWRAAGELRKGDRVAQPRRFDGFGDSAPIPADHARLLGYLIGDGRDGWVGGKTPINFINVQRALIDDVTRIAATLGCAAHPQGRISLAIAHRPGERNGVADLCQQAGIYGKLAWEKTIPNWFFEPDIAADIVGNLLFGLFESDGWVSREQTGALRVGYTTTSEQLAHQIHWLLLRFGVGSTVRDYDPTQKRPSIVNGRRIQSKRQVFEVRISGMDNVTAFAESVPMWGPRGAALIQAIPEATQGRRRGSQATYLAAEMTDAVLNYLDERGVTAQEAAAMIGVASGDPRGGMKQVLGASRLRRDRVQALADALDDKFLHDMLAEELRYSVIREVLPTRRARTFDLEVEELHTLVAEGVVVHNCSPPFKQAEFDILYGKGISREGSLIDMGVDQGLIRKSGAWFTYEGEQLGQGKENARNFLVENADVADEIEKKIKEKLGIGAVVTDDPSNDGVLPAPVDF

[3] = A Cell Based Secondary Assay to Explore Cytotoxicity in THP-1 Cells of Compounds that Modulate Mycobacterium tuberculosis in Media Containing Glycerol versus Media without Glycerol (2).; assay type: functional
[4] = Vero cell cytotoxicity, cytotoxicity control for M. tuberculosis inhibitor project, purified and synthesized samples, set 3 (AID 504684); assay type: functional
[5] = molecular target: Potassium voltage-gated channel subfamily KQT member 2 (Rattus norvegicus, UniProt O88943); assay: KCNQ2 potassium channel inhibitors, dose response, cell-based, automated electrophysiology, set II, rat KCNQ2 (AID 588637); assay type: functional
Chain of Potassium voltage-gated channel subfamily KQT member 2 (O88943 whole entry): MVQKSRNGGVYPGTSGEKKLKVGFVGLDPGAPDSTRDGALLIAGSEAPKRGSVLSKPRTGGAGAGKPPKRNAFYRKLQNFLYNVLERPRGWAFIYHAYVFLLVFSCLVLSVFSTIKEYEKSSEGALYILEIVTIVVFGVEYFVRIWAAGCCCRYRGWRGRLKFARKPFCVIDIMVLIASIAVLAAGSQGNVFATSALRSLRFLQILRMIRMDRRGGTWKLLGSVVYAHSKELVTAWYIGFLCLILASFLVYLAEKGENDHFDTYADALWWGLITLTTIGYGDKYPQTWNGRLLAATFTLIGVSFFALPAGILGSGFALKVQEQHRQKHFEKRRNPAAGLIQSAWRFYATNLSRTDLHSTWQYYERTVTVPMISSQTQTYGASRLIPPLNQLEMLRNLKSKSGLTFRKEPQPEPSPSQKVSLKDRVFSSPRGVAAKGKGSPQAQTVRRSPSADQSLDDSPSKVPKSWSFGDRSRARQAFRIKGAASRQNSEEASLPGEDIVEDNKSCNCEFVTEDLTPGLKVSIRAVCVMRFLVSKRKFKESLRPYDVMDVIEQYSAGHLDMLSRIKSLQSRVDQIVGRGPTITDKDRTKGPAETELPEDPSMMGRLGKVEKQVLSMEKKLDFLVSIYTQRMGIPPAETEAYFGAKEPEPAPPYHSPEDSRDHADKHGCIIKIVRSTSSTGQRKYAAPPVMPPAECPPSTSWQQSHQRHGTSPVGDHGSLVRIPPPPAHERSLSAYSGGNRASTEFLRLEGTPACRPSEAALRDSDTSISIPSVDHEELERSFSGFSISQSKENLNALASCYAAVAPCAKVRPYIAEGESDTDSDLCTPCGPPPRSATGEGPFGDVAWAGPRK

[6] = molecular target: T3, Sentrin-specific protease 8 (Homo sapiens, UniProt Q96LD8); assay type: functional
T3 sequence (Q96LD8 whole entry): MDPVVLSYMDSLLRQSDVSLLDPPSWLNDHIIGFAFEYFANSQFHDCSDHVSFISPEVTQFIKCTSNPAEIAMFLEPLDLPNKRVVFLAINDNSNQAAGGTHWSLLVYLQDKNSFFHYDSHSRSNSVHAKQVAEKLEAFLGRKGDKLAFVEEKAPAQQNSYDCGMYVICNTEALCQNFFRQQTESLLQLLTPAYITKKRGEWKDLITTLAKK

[7] = molecular target: T3, Sentrin-specific protease 8; assay type: functional; remark: listed apart in the source
[8] = ARNT/TACC3 interaction disruptors, potency, confirmation, biochemical, AlphaScreen, cherry-picked samples (AID 651703); assay type: functional, Homo sapiens;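 also: His-tagged ARNT PAS-B domain paired with GST-TACC3 E629A dimer coactivator fragment; potency of inhibitors that break up the complex and lower AlphaScreen signal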
[9] = molecular target: ADP-ribosylation factor GTPase-activating protein 1 (Rattus norvegicus, UniProt Q62848); assay: Fluorescence polarization-based biochemical high throughput dose response screening assay to identify inhibitors of ADP-ribosylation factor GTPase activating protein 1 (ARFGAP1).; assay type: functional
Chain of ADP-ribosylation factor GTPase-activating protein 1 (Q62848 whole entry): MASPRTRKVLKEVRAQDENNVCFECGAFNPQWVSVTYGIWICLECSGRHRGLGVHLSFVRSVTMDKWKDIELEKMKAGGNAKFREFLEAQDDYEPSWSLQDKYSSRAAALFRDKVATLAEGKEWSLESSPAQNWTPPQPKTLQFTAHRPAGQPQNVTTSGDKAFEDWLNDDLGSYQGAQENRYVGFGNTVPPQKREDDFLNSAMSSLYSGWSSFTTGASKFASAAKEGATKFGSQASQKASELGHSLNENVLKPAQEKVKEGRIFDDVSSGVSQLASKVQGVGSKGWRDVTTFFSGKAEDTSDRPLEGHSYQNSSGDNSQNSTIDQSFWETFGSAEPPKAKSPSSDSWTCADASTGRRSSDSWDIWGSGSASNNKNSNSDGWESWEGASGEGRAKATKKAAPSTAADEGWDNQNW

Interleukin-8 = molecular target: T4, Interleukin-8 (Homo sapiens, UniProt P10145); assay: Dose Response confirmation of uHTS small molecule hits for cystic fibrosis induced NFkb Inhibitors in a PAF-induced IL8 counterscreen.; assay type: functional; details: read-out: IC50_Mean
T4 sequence (P10145 whole entry): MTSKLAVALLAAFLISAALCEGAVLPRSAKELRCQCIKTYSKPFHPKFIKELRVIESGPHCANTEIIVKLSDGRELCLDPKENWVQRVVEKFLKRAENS

[10] = molecular target: Hepatocyte nuclear factor 4-alpha (Homo sapiens, UniProt P41235); assay type: functional, cell-based;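 also: biochemical luminescence-based dose-response counterscreen measuring inhibition of HNF4 dimerization, run alongside a screen for blockers of ABHD5–perilipin-5 interaction; split luciferase complementation of HNF4 fusion proteins in cell lysate measuring dimerization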
Chain of Hepatocyte nuclear factor 4-alpha (P41235 whole entry, the tested form may be a part): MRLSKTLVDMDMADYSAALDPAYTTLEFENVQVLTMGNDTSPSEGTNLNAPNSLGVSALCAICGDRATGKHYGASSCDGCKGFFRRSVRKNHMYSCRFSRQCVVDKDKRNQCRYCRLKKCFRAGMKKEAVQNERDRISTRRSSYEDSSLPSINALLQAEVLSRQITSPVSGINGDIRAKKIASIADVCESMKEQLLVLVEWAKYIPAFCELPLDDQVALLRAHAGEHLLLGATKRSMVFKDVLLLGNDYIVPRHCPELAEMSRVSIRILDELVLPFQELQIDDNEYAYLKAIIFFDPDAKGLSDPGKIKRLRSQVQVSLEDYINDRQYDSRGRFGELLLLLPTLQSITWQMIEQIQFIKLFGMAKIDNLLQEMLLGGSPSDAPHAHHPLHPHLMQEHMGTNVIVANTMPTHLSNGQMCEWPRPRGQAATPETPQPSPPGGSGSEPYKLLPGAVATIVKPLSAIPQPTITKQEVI

[11] = molecular target: T5, Sentrin-specific protease 1 (Homo sapiens, UniProt Q9P0U3); assay: potency of human SENP1 inhibitors, dose response, biochemical, kinetic FRET (AID 651697); assay type: functional; details: read-out: IC50_Mean
T5 sequence (Q9P0U3 whole entry, the tested form may be a part): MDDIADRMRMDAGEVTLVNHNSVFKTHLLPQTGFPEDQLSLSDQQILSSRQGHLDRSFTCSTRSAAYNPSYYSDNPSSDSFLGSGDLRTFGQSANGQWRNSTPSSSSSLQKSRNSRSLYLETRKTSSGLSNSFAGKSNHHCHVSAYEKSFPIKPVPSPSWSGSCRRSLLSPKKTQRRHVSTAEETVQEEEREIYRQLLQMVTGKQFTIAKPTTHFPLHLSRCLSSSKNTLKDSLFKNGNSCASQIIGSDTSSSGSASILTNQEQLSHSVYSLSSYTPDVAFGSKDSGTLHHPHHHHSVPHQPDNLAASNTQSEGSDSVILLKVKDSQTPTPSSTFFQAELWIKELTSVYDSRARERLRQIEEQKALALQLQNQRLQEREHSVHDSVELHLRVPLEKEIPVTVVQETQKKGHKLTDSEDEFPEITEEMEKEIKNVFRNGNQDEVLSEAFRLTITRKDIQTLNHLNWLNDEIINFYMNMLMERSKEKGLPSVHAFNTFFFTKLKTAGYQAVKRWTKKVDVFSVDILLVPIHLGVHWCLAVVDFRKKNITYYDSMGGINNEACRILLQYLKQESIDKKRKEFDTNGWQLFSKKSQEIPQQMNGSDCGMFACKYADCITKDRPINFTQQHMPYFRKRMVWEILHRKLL

[12] = molecular target: T5, Sentrin-specific protease 1; assay: Dose response confirmation of small molecule inhibitors of the catalytic domain of the SUMO protease, SENP1 in a FRET assay.; assay type: functional; details: read-out: IC50_Mean
[13] = molecular target: Nuclear receptor subfamily 5 group A member 2 (Homo sapiens, UniProt O00482); assay type: functional, cell-based;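 also: HEK293T cells transfected with LRH-1 and a StAR promoter luciferase reporter; potency for inhibitors that lower LRH-1 driven reporter light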
Chain of Nuclear receptor subfamily 5 group A member 2 (O00482 whole entry): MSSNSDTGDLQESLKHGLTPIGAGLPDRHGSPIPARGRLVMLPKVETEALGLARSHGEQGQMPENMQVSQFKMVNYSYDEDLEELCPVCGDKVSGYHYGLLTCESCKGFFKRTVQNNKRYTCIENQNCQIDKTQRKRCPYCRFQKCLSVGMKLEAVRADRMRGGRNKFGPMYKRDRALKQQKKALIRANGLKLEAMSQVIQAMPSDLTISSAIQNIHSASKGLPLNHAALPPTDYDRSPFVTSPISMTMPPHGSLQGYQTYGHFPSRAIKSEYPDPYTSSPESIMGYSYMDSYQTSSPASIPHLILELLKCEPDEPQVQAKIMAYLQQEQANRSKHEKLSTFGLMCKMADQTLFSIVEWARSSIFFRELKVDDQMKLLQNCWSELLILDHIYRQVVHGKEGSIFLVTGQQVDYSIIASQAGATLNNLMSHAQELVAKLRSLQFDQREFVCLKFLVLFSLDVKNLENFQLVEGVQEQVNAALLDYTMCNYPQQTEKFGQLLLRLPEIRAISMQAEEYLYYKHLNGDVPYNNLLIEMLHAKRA

Steroidogenic factor 1 = Steroidogenic factor 1 (Homo sapiens, UniProt Q13285); assay: Counterscreen for inverse agonists of the liver receptor homolog-1 (LRH-1; NR5A2): Luminescence-based cell-based high throughput dose response assay to identify inverse agonists of the Steroidogenic Factor 1 Nuclear Receptor (SF1; NR5A1).; assay type: functional
Chain of Steroidogenic factor 1 (Q13285 whole entry): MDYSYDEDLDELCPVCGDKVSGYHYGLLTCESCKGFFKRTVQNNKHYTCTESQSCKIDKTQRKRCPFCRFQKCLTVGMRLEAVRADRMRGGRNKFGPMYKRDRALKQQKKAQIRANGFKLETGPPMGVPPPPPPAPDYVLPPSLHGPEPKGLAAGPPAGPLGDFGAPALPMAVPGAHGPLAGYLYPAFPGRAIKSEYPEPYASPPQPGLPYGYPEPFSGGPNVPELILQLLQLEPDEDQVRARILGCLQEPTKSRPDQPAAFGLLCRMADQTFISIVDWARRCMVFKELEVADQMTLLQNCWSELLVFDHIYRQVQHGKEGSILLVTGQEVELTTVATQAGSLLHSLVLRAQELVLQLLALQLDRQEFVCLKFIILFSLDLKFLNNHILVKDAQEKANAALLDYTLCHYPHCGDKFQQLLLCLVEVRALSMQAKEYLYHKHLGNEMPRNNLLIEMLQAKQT

[14] = StAR promoter reporter inhibition counter-screen, dose response, counter-screen for LRH-1 inverse agonist project, cell-based, luminescence, luciferase reporter (AID 651969); assay type: functional
[15] = molecular target: T6, Carboxy-terminal domain RNA polymerase II polypeptide A small phosphatase 1 (Homo sapiens, UniProt Q9GZU7); assay: inhibitors of CTDSP1, concentration-response testing, biochemical assay, absorbance-based, actives from ultra-high-throughput screening (AID 540297); assay type: functional
T6 sequence (Q9GZU7 whole entry): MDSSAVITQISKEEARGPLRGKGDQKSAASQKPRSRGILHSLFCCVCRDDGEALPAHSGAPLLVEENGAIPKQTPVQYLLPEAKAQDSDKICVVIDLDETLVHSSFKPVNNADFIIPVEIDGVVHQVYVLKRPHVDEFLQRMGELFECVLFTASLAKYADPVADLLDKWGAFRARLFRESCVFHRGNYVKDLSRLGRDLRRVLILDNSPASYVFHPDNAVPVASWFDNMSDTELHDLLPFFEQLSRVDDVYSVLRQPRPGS

[16] = molecular target: T7, Corticotropin-releasing factor receptor 2/Corticotropin-releasing factor-binding protein (Homo sapiens, UniProt P24387+Q13324); assay: Dose Response confirmation of uHTS hits for small molecule antagonists of the CRF-binding protein and CRF-R2 receptor complex.; assay type: functional; details: read-out: IC50_Mean
T7 sequence (Q13324 whole entry): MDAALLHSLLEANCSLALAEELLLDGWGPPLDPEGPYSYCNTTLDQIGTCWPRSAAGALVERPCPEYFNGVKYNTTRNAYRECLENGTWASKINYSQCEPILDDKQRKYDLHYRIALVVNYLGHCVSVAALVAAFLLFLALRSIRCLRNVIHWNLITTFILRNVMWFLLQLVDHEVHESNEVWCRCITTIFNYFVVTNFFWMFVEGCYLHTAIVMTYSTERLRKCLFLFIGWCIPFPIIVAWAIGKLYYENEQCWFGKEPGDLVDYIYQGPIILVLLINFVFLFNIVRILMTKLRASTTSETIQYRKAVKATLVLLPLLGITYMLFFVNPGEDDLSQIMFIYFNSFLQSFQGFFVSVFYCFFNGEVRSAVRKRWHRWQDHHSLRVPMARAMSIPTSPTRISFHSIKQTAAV
T7 sequence (P24387 whole entry): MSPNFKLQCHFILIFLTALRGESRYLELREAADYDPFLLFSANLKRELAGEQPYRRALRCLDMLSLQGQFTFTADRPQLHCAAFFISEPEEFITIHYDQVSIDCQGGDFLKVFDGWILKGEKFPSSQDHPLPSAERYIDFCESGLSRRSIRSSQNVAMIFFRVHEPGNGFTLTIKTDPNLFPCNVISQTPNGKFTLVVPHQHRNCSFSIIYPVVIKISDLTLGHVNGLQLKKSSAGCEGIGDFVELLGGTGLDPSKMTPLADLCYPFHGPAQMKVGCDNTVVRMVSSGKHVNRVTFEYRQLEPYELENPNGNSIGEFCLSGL

[17] = molecular target: T7, Corticotropin-releasing factor receptor 2/Corticotropin-releasing factor-binding protein; assay: activators of CRF receptor 2 with binding protein – uHTS hits, confirmation (AID 602473); assay type: functional; details: read-out: EC50_Mean
[18] = CRF-BP/CRF-R2 complex antagonists, dose response, cell-based, uHTS hits, 384-well (AID 651639); assay type: functional, Homo sapiens; details: read-out: IC50_Mean
[19] = molecular target: T8, Aryl hydrocarbon receptor (Homo sapiens, UniProt P35869); details: Potency;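 also: confirmatory quantitative high-throughput screen measuring activation of the AhR signaling pathway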
T8 sequence (P35869 whole entry): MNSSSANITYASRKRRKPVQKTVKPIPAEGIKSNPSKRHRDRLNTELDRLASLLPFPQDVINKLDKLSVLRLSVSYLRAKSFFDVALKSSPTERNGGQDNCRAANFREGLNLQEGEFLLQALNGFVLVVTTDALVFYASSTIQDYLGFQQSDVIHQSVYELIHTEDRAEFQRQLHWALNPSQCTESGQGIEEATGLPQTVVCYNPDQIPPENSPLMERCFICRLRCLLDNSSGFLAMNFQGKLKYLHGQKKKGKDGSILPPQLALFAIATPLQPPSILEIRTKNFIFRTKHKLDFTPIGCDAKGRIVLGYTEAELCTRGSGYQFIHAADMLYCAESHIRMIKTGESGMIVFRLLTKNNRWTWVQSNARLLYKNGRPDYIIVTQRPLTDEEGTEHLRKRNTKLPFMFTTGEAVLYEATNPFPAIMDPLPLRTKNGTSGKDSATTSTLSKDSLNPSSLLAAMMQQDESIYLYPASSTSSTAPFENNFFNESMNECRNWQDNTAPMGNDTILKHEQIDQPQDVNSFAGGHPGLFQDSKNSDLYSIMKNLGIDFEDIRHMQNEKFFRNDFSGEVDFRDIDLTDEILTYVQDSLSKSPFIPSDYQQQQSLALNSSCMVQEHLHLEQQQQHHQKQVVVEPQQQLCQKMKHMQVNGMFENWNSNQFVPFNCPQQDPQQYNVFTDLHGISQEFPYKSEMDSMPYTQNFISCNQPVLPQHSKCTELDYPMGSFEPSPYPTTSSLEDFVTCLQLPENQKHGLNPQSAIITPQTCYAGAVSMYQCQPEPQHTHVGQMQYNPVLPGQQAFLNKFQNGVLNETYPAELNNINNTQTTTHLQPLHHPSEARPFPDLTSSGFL

Cc1cccc(NC(=O)CSc2cccc3cccnc23)c1
AC50 [1]: 76.9 µM (active)

CCOC(=O)C(C)Sc1ncnc2c1nnn2-c1ccc(F)cc1 (centres undefined)
AC50 [2]: 10.4 µM (active) | EC50 (Protein RecA): 10.9 µM (active) | CC50 [3]: 55.2 µM (active) | CC50 [4]: 67.1 µM (active)

O=C(OCC(=O)N(CCc1ccccc1)Cc1ccccc1)c1ccccc1O
IC50 [5]: 1.83 µM (active)

COc1ccc(S(=O)(=O)Oc2ccc3cccc(N)c3c2)cc1
IC50 [6]: 19.6 µM (active) | IC50 [7]: 9.11 µM (active)

COC(=O)CC1=NN(c2nc(C)cc(C)n2)C(=O)C1
AC50 [2]: 103 µM (active) | EC50 (Protein RecA): > 380 µM (inactive) | AC50 [8]: 123 µM (active)

COc1ccc(NC(=O)Cn2nnc(C(=O)Nc3ccc(F)c(Cl)c3)c2N)cc1
IC50 [9]: 53.1 µM (inactive)

OCCN1CCN(c2ncnc3ccc(Br)cc23)CC1
IC50 (Interleukin-8): 22 µM (inactive)

O=C(NC1CCCCC1)C(c1cccc2ccccc12)n1c(=O)c(-c2ccco2)nc2ccccc21 (centres undefined)
IC50 [10]: 1.48 µM (active)

O=C(NC[C@@H]1CCCO1)c1cccc2c1C(=O)c1ccc(N3CCOCC3)cc1S2(=O)=O
IC50 [11]: 12 µM (active) | IC50 [12]: 16.4 µM (active)

COc1ccc(-n2c(N)c(C(=O)NCc3cccnc3)sc2=S)cc1
IC50 [13]: 35.9 µM (inactive) | IC50 (Steroidogenic factor 1): 5.22 µM (active) | IC50 [14]: 35.9 µM (inactive)

C=CCn1cnc2c(c1=O)c1nc3ccccc3nc1n2/N=C/c1cccc(OC)c1OC
IC50 [15]: 10.1 µM (active) | IC50 [16]: 3.36 µM (active) | EC50 [17]: > 53 µM (inactive) | IC50 [18]: 2.21 µM (active)

CC1(COc2ccc(CC3SC(=O)NC3=O)cc2)CCCCC1 (centres undefined) [CIGLITAZONE]
AC50 [19]: 56.2 µM (inconclusive)
